What was measured:
Assay type in all cases: in vivo
[1] = tested on: barnyardgrass (Echinochloa crusgalli); assay: Test B flooded paddy test, visual plant response rating 0-100; details: 250 g ai/ha, Flood, applied to paddy water, evaluated after 13 days
Summary of the method: (§1)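 2-leaf plants; flood 3 cm over soil; compound dosed into paddy water; depth kept constant; greenhouse 13 d; visual scoring vs controls. Dash = no result.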

[2] = tested on: sedge, umbrella (small-flower umbrella sedge, Cyperus difformis); assay: as above; details: 250 g ai/ha, Flood, applied to paddy water, evaluated after 13 days
Summary of the method: as §1

[3] = tested on: ducksalad (Heteranthera limosa); assay: as above; details: 250 g ai/ha, Flood, applied to paddy water, evaluated after 13 days
Summary of the method: as §1

[4] = tested on: rice (Oryza sativa); assay: as above; details: 250 g ai/ha, Flood, applied to paddy water, evaluated after 13 days
Summary of the method: as §1

[5] = tested on: blackgrass (Alopecurus myosuroides); assay: Test A preemergence soil spray, visual injury rating 0-100; details: 10 days
Summary of the method: (§2)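 Grow plants in loam soil blended with sand. Apply formulated compound (non-phytotoxic solvent, surfactant) as a directed soil spray before emergence, or to plants at the one- to two-leaf stage after emergence. Hold in greenhouse 10 days, then rate injury visually versus untreated controls on a 0-100 scale.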

[6] = tested on: ryegrass, Italian (italian ryegrass, Lolium multiflorum); assay: as above; details: 10 days
Summary of the method: as §2

[7] = tested on: barnyardgrass (Echinochloa crus-galli); assay: as above; details: 10 days
Summary of the method: as §2

[8] = tested on: ragweed (common ragweed, Ambrosia artemisiifolia); assay: as above; details: 10 days
Summary of the method: as §2

[9] = tested on: corn (Zea mays); assay: as above; details: 10 days
Summary of the method: as §2

[10] = tested on: soybean (Glycine max); assay: as above; details: 10 days
Summary of the method: as §2

[11] = tested on: green foxtail (Setaria viridis); assay: as above; details: 10 days
Summary of the method: as §2

[12] = tested on: oat, wild (wild oat, Avena fatua); assay: as above; details: 10 days
Summary of the method: as §2

[13] = tested on: wheat (Triticum aestivum); assay: as above; details: 10 days
Summary of the method: as §2

[14] = tested on: palmer (palmer amaranth, palmer pigweed, Amaranthus palmeri); assay: as above; details: 10 days
Summary of the method: as §2

[15] = tested on: kochia (Bassia scoparia); assay: as above; details: 10 days
Summary of the method: as §2

[16] = tested on: galium (catchweed bedstraw, Galium aparine); assay: Test A postemergence application, visual injury rating 0-100
Summary of the method: as §2

[17] = tested on: blackgrass (Alopecurus myosuroides); assay: as above
Summary of the method: as §2

[18] = tested on: ryegrass, Italian (italian ryegrass, Lolium multiflorum); assay: as above
Summary of the method: as §2

[19] = tested on: barnyardgrass (Echinochloa crus-galli); assay: as above
Summary of the method: as §2

[20] = tested on: ragweed (common ragweed, Ambrosia artemisiifolia); assay: as above
Summary of the method: as §2

[21] = tested on: corn (Zea mays); assay: as above
Summary of the method: as §2

[22] = tested on: soybean (Glycine max); assay: as above
Summary of the method: as §2

[23] = tested on: green foxtail (Setaria viridis); assay: as above
Summary of the method: as §2

[24] = tested on: oat, wild (wild oat, Avena fatua); assay: as above
Summary of the method: as §2

[25] = tested on: horseweed (Erigeron canadensis); assay: as above
Summary of the method: as §2

[26] = tested on: wheat (Triticum aestivum); assay: as above
Summary of the method: as §2

[27] = tested on: palmer (palmer amaranth, palmer pigweed, Amaranthus palmeri); assay: as above
Summary of the method: as §2

[28] = tested on: kochia (Bassia scoparia); assay: as above
Summary of the method: as §2

[29] = 62 g ai/ha, 0 = no effect, 100 = complete control
[30] = 62 g ai/ha, postemergence, 10 days, 0 = no effect, 100 = complete control
[31] = Postemergence, 16 g ai/ha, greenhouse 10 days, 0 no effect, 100 complete control

CC1(C(=O)NC2CC=C(C(=O)O)C2)CN(c2cc(F)cc(F)c2)C(=O)O1 (stereo not shown) [Compound 94]
Plant response rating, Barnyardgrass (0 to 100 scale, 0 is no effect and 100 is complete control) [1]: 95
Plant response rating, Sedge, Umbrella (0 to 100 scale, 0 is no effect and 100 is complete control) [2]: 95
Plant response rating, Ducksalad (0 to 100 scale, 0 is no effect and 100 is complete control) [3]: 95
Plant response rating, Rice (0 to 100 scale, 0 is no effect and 100 is complete control) [4]: 75
Blackgrass plant response rating ([5]; 16 g ai/ha, 0 to 100 scale): 30
Blackgrass plant response rating (0-100) [5, 29]: 60
Ryegrass, Italian plant response rating ([6]; 16 g ai/ha, 0 to 100 scale): 60
Ryegrass, Italian plant response rating (0-100) [6, 29]: 70
Barnyardgrass plant response rating ([7]; 16 g ai/ha, 0 to 100 scale): 40
Barnyardgrass plant response rating (0-100) [7, 29]: 100
Ragweed plant response rating ([8]; 16 g ai/ha, 0 to 100 scale): 20
Ragweed plant response rating (0-100) [8, 29]: 40
Corn plant response rating ([9]; 16 g ai/ha, 0 to 100 scale): 40
Corn plant response rating (0-100) [9, 29]: 80
Soybean plant response rating ([10]; 16 g ai/ha, 0 to 100 scale): 10
Soybean plant response rating (0-100) [10, 29]: 30
Foxtail, Green plant response rating ([11]; 16 g ai/ha, 0 to 100 scale): 10
Foxtail, Green plant response rating (0-100) [11, 29]: 90
Oat, Wild plant response rating ([12]; 16 g ai/ha, 0 to 100 scale): 10
Oat, Wild plant response rating (0-100) [12, 29]: 50
Wheat plant response rating ([13]; 16 g ai/ha, 0 to 100 scale): 60
Wheat plant response rating (0-100) [13, 29]: 90
Pigweed, Palmer plant response rating ([14]; 16 g ai/ha, 0 to 100 scale): 20
Pigweed, Palmer plant response rating (0-100) [14, 29]: 60
Kochia plant response rating ([15]; 16 g ai/ha, 0 to 100 scale): 0
Kochia plant response rating (0-100) [15, 29]: 90
Galium plant response rating (0-100) [16, 30]: 90
Galium plant response rating (0 to 100 scale) [16, 31]: 70
Blackgrass plant response rating (0-100) [17, 30]: 90
Blackgrass plant response rating (0 to 100 scale) [17, 31]: 80
Ryegrass, Italian plant response rating (0-100) [18, 30]: 90
Ryegrass, Italian plant response rating (0 to 100 scale) [18, 31]: 70
Barnyardgrass plant response rating (0-100) [19, 30]: 100
Barnyardgrass plant response rating (0 to 100 scale) [19, 31]: 100
Ragweed plant response rating (0-100) [20, 30]: 50
Ragweed plant response rating (0 to 100 scale) [20, 31]: 50
Corn plant response rating (0-100) [21, 30]: 100
Corn plant response rating (0 to 100 scale) [21, 31]: 100
Soybean plant response rating (0-100) [22, 30]: 70
Soybean plant response rating (0 to 100 scale) [22, 31]: 60
Foxtail, Green plant response rating (0-100) [23, 30]: 90
Foxtail, Green plant response rating (0 to 100 scale) [23, 31]: 60
Oat, Wild plant response rating (0-100) [24, 30]: 90
Oat, Wild plant response rating (0 to 100 scale) [24, 31]: 40
Horseweed plant response rating (0-100) [25, 30]: 60
Horseweed plant response rating (0 to 100 scale) [25, 31]: 20
Wheat plant response rating (0-100) [26, 30]: 90
Wheat plant response rating (0 to 100 scale) [26, 31]: 60
Pigweed, Palmer plant response rating (0-100) [27, 30]: 90
Pigweed, Palmer plant response rating (0 to 100 scale) [27, 31]: 50
Kochia plant response rating (0-100) [28, 30]: 90
Kochia plant response rating (0 to 100 scale) [28, 31]: 80

Source: patent US20260285850A1, “SUBSTITUTED OXAZOLIDINONES AND IMIDAZOLINONES AS HERBICIDES” (FMC CORPORATION, priority 2023, published 2026)
